Measured values from US20150166646A1, “Methods and Compositions for Treating or Diagnosing Melanoma” (The Wistar Institute of Anatomy and Biology, priority 2012, published 2015).

Tests used:
1205Lu melanoma cells = experiment: Matrigel Transwell invasion assay with 1205Lu-MΦ conditioned medium; type: cell-based, human; conditions: anti-CCL2 10 μg/ml
Protocol: The invasion assay was conducted with 24-well Transwell inserts (8 μm pore size; Corning). For the MCMI-MΦ-induced invasion assay, 4×10^5 1205Lu melanoma cells in 2% FBS RPMI1640 medium were added in the upper chamber precoated with 50 μl Matrigel (1:3 dilution, BD Biosciences). Media from 1205Lu-MΦ were added to the lower chamber, and R10 medium was used as a control. After overnight incubation, cells that had invaded
were fixed and stained with Diff-Quick staining kit (ThermoFisher). The stained cells in 4 randomly chosen fields were counted for each insert (200×). […]
We used a Matrigel Transwell assay and compared invasion of melanoma cells attracted to the supernatant of 1205Lu-MΦ alone or the supernatant with an anti-CCL2 monoclonal antibody and a pan-MMPs inhibitor GM6001 (see FIG. 7; see also FIG. 4(A)-(E) of Reference 11).

macrophages = experiment: Macrophage growth (WST-1) and cell death; type: cell-based, human; conditions: 3 μM, 72 hours
[1] = system: peritoneal F4/80 positive macrophages; experiment: Flow cytometric analysis of peritoneal macrophages of treated xenograft mice; type: in vivo; conditions: day 14
[2] = system: 1205Lu xenograft tumor tissues; experiment: Immunohistochemistry of xenograft tumors (F4/80, phospho-ERK, Ki67); type: in vivo, mice; conditions: for Ki67 positive cells in tumor tissues / signaling of phospho-ERK in tumor tissues: compared to control mice; for F4/80 positive macrophages in tumors: day 14
[3] = system: melanoma cells co-cultured with macrophages; experiment: Melanoma/macrophage transwell co-culture: growth (WST-1) and cell death; type: cell-based, human; conditions: for macrophage-mediated resistance of melanoma cells to BRAFi (cell growth, anti-cell death effect): co-culture with macrophages in presence of PLX4720, 3 days
[4] = system: MAPK pathway in macrophages; experiment: Immunoblotting of MAPK signaling in macrophages; type: cell-based, human; conditions: 2 hours; accompanied by phosphorylation of CRAF
Protocol: For macrophages, after monocytes were differentiated to the macrophages, cells in 2% FBS melanoma media were seeded into 15 ml tubes. […] Immunoblotting were performed as described previously. The following antibodies were used: anti-phospho-ERK, ERK, Phospho-VEGFR1, phospho-CRAF, CRAF, PCNA, HSP90 and Rab11.
Cells were harvested for immunoblotting of antibodies to pERK (short expression), pERK, ERK, pCRAF (S338), CRAF, and Rab11 as shown in FIG. 11A. An ELISA assay was performed to determine the activation of RAS in 3 macrophage donors and the melanoma cells A375 and 1205Lu. As see in FIG. 11B, macrophages have high basal level of RAS activation.

1205Lu [5] = experiment: Western blot for cPARP in 1205Lu cells; type: cell-based, human; conditions: PLX4720 1, 3, 10 μM, 2 days, with or without macrophages
[6] = system: VEGF production in macrophages; experiment: Intracellular staining for VEGF production in macrophages; conditions: 4 hours
[7] = system: 1205Lu and A375 melanoma cells; experiment: Melanoma cell growth (WST-1) and cell death (Annexin V/7-AAD), cells cultured alone; type: cell-based, human
[8] = system: MAPK pathway (pERK) in melanoma cells; experiment: Immunoblotting of MAPK signaling in melanoma cells; type: cell-based, human; conditions: VEGF 10 ng/ml and PLX4720 1 μM, 4 hours
Protocol: Macrophages and melanoma co-culture system was set up as described above. Melanoma cells were cultured same as Proliferation assay for 6 hours and were harvested for Immmunoblotting with following antibodies: phspho-ERK, total ERK, HSP90, phosphor-AKT, AKT, phosphor-NF-κB, phospho-CRAF, total CRAF, Phospho-ARAF, RAB11, Vinculin.
Cells were harvested for immunoblotting with antibodies to pERK, ERK, HSP90. VEGF increases the activation of MAPK pathway (FIG. 10C).
Relative cell growth and cell death were determined as above.

1205Lu xenograft = 1205Lu xenograft tumor growth in nude mice; type: in vivo
Protocol: 5×10^5 1205Lu cells were subcutaneously injected to Nude mice (Female, 8 weeks old).
Tumor size was measured by a caliper. Tumor volume was calculated by the formula: Volume width×wide×length/2. The results are shown in the plot of FIG. 12A, plotting tumor volume vs. day.
Tumors from the experiment described immediately above were extracted and weighted after mice were euthanized. Tumor weight in grams was plotted vs. control or an agent defined along the x axis of FIG. 22A.
All studies were conducted under IACUC guidelines. 7 weeks old BALB/c female nude mice (National Cancer Institute) were injected subcutaneously with 1×10^61205Lu cells in 50% Matrigel (BD Biosciences) in both flanks of mice. When xenografts reached volumes of approximately 100 mm^3, mice were randomly grouped to four groups, with 5 animals per group. GW2580 was dissolved in 0.5% hydroxypropylmethylcellulose (Sigma-Aldrich, MO, USA) and 0.1% Tween 80, and was dosed orally at 160 mg/Kg once daily. […] Tumor volumes were measured every three days using a digital caliber and were calculated using the equation V=0.5×L×W^2. Mice tumors were weighted after mice were euthanized.
1205Lu cells were injected s.c into both flanks of nude mice. […] ANOVA was used to compare the differences in tumor volume. Mice were euthanized on day 14, peritoneal cells were harvested for flow cytometric analysis of the percent of F4/80 positive macrophages. Immunohistochemistry analysis of the expression of F4/80, phospho-ERK and Ki67 in tumors was conducted. The results are shown in FIGS. 12A-E. See, also the data in FIGS. 3B and 3C

1205Lu [9] = experiment: Western blot of 1205Lu cells treated with PLX4720, GW2580, soluble M-CSFR with or without MCMI-Mφ; type: cell-based, human; conditions: 10 μM, 3 days, without MCMI-Mφ

## CNC(=O)[C@H](Cc1c[nH]c2ccccc12)NC(=O)[C@@H](CC(=O)NO)CC(C)C [GM6001]
1205Lu melanoma cells; GM6001 10 μM, Matrigel Transwell
  1205Lu-MΦ supernatant induced melanoma invasion: did not have a significant effect
1205Lu melanoma cells; MMPi 5 μM, 18 h, 1205Lu-MΦ CM
  melanoma cell invasion (FIG. 7): marginally increased melanoma cell invasion

## CC(C)(C)c1nc(-c2cccc(NS(=O)(=O)c3c(F)cccc3F)c2F)c(-c2ccnc(N)n2)s1 [Dabrafenib]
macrophages
  macrophage apoptosis / cell death: protects macrophage from cell death

## CCCS(=O)(=O)Nc1ccc(F)c(C(=O)c2c[nH]c3ncc(Cl)cc23)c1F [PLX4720]
[1]
  numbers of peritoneal F4/80 positive macrophages: amplified this effect
[2]
  Ki67 positive cells in tumor tissues: fewer
  signaling of phospho-ERK in tumor tissues: decreased signaling
  F4/80 positive macrophages in tumors: significant decrease
[3]; 0-10 μM, 3 days, 1205Lu, A375, SK-MEL-28, 451Lu
  BRAFi-induced growth inhibition and cell death of melanoma cells when co-cultured with macrophages: significantly protected from PLX4720-induced growth inhibition and cell death
macrophages
  macrophage apoptosis / cell death: protects macrophage from apoptosis
[4]
  MAPK signaling in macrophages: strongly activated
1205Lu [5]
  cPARP gel (Western blot): showed a second blot
[6]
  production of VEGF in macrophages: significantly increased

## COc1cc2nccc(Oc3ccc(NC(=O)NC4CC4)c(Cl)c3)c2cc1C(N)=O [Lenbatinib]
[3]
  macrophage-mediated resistance of melanoma cells to BRAFi (cell growth, anti-cell death effect): reverse macrophage-mediated resistance

## VEGF
[7]; VEGF 10 ng/ml with PLX4720, 3 days
  rescue of PLX4720-induced cell growth inhibition: rescued PLX4720-induced cell growth inhibition
[8]
  MAPK pathway in melanoma cells: activated the MAPK pathway

## COc1ccc(COc2ccc(Cc3cnc(N)nc3N)cc2OC)cc1 [GW2580, 5-(3-methoxy-40((4-methoxybenzyl)oxy)benzyl)pyrimidine-2,4-diamine]
1205Lu xenograft; 14 days, GW2580 160 mg/kg vs PLX4720
  efficacy compared with PLX4720 alone: less efficacious than PLX4720
1205Lu xenograft; after 14 days of oral treatment, GW2580 160 mg/kg, PLX4720 30 mg/ml as printed
  tumor size / tumor growth: significantly decreased tumor size
1205Lu xenograft; oral, 14 days
  effect on anti-tumor activity of PLX4720 on 1205Lu xenograft tumor growth (FIG. 12A): increases anti-tumor activity of PLX4720
[1]
  numbers of peritoneal F4/80 positive macrophages: significant decrease
[2]
  Ki67 positive cells in tumor tissues: fewer
  signaling of phospho-ERK in tumor tissues: decreased signaling
  F4/80 positive macrophages in tumors: abolished
[7]; GW2580 alone, 72 hours
  melanoma growth and death in vitro: did not have significant effects
[3]
  macrophage-mediated resistance of melanoma cells to BRAFi (cell growth, anti-cell death effect): can reverse macrophage-mediated resistance
1205Lu [9]
  expression of pERK, pAKT, pS6, pRSK90 (Western blot): all blots appear similar to col. 4

## m-CSFR: soluble M-CSFR
1205Lu [9]
  expression of pERK, pAKT, pS6, pRSK90 (Western blot): no change from control
